Measurements from patent US7713969B2, “Compositions and methods for treatment of cancer” (ArQule, Inc., priority 2005, dated 2010).

Legend:
Assay in all cases: Cell viability MTS assay
Format in all cases: cell-based, human
DU-145 = tested on: DU-145
Procedure: (§1) Cell viability was determined by measuring the activity of dehydrogenase enzymes in metabolically active cells using a tetrazolium compound, MTS. The assay was performed as described in Promega Technical Bulletin No. 169 (CellTiter 96 Aqueous Non-Radioactive Cell Proliferation Assay). Thirteen human cancer cell lines were assayed (see, e.g., Table 1). Cells were maintained at 37° C., 5% CO2. Adherent cells were maintained DMEM media (4.5 g/L glucose) supplemented with 15% heat-inactivated FBS, 10 mM L-glutamine, and 10 mM Hepes pH 7.5. Suspension cells were maintained in RPMI 1640 media, supplemented with 10% heat-inactivated FBS and 10 mM Hepes pH 7.5. Briefly, cells were seeded in 96-well plates as set forth in Table 1 and incubated for 16-24 hours. Candidate compounds were serially diluted in DMSO, further diluted in cell culture media, and then added to cells (final DMSO concentration of 0.33%). Cells were incubated in the presence of candidate compound for 72 hours. MTS stock solution (MTS 2 gm/L, PMS […] in PBS) was added to the cells (final concentration MTS […] and PMS 7.67 mg/L) and incubated for 4 hours. SDS was added to a final concentration of 1.4% and absorbance at 490 nm was measured within two hours using a platereader. The IC50 was defined as the concentration of compound that results in a 50% reduction in the number of viable cells as compwered to control wells treated with DMSO only (0.33%) and was calculated using non-linear regression analyswas. IC50 values were given in Table 2 for the compounds listed.

K562 = tested on: K562
Procedure: as §1

A549 = tested on: A549
Procedure: as §1

HT29 = tested on: HT29
Procedure: as §1

HCT-116 = tested on: HCT-116
Procedure: as §1

NCI-H446 = conditions: Homo sapiens, NCI-H446, 72 hours with compound
Procedure: as §1

MDA-MB-231 = tested on: MDA-MB-231
Procedure: as §1

NCI-H82 = conditions: Homo sapiens, NCI-H82, 72 hours with compound
Procedure: as §1

MCF7 = conditions: Homo sapiens, MCF7, 72 hours with compound
Procedure: as §1

SKOV-3 = conditions: Homo sapiens, SK-OV-3, 72 hours with compound
Procedure: as §1

SK-MEL-28 = conditions: Homo sapiens, SK-MEL-28, 72 hours with compound
Procedure: as §1

PC-3 = conditions: Homo sapiens, PC-3, 72 hours with compound
Procedure: as §1

NCI-H69 = conditions: 72 hours with compound
Procedure: as §1

[1] = Homo sapiens, MDA-MB-231, 72 hours with compound
[2] = Homo sapiens, DU-145, 72 hours with compound
[3] = Homo sapiens, K562, 72 hours with compound
[4] = Homo sapiens, A549, 72 hours with compound
[5] = Homo sapiens, HT-29, 72 hours with compound
[6] = Homo sapiens, HCT-116, 72 hours with compound

Row | Compound | IC50 (MDA-MB-231; [1]) | IC50 (MCF7) | IC50 (SKOV-3) | IC50 (SK-MEL-28) | IC50 (HT29; [5]) | IC50 (PC-3) | other results
1 | 3-(5,6-Dihydro-4H-pyrrolo[3,2,1-ij]quinolin-1-yl)-4-(2,6-dichloro-phenyl)-pyrrole-2,5-dione [Example 20] | – | – | – | – | – | – | IC50 (DU-145; 72 hours with compound): 31.1 µM; IC50 (K562; 72 hours with compound): 2.47 µM; IC50 (A549; 72 hours with compound): 38.8 µM; IC50 (HT29; 72 hours with compound): > 100 µM; IC50 (HCT-116; 72 hours with compound): 4.96 µM
2 | Cn1cc([C@@H]2C(=O)NC(=O)[C@H]2c2cn3c4c(cccc24)CCC3)c2ccccc21 (racemic) [Example 51, (±)-Trans-3-(5,6-dihydro-4H-pyrrolo[3,2,1-ij]quinolin-1yl)-4-(N-methylindol-3-yl)pyrrolidine-2,5-dione] | 67.3 µM | – | – | – | – | – | IC50 (NCI-H446): 65.7 µM; IC50 (NCI-H82): 37.7 µM
3 | COc1ccc(OC)c([C@H]2C(=O)NC(=O)[C@H]2c2cn3c4c(cccc24)CCC3)c1 (racemic) [Example 53, (±)-Cis-3-(5,6-dihydro-4H-pyrrolo[3,2,1-ij]quinolin-1yl)-4-(2,5-dimethoxyphenyl)-pyrrolidine-2,5-dione] | > 100 µM | > 100 µM | 57.4 µM | > 100 µM | > 100 µM | > 100 µM | IC50 (DU-145; [2]): > 100 µM; IC50 (K562; [3]): 36.3 µM; IC50 (A549; [4]): > 100 µM; IC50 (HCT-116; [6]): > 100 µM
4 | O=C1NC(=O)[C@@H](c2cn3c4c(cccc24)CCC3)[C@H]1c1ccc(F)cc1Cl (racemic) [Example 54, (±)-Cis-3-(5,6-dihydro-4H-pyrrolo[3,2,1-ij]quinolin-1yl)-4-(2-chloro-4-fluoro-phenyl)-pyrrolidine-2,5-dione] | – | > 100 µM | 6.88 µM | 25.2 µM | 8.78 µM | 11.5 µM | IC50 (DU-145; [2]): 21.1 µM; IC50 (K562; [3]): 3.37 µM; IC50 (A549; [4]): 22.1 µM; IC50 (HCT-116; [6]): 7.63 µM
5 | O=C1NC(=O)[C@@H](c2cn3c4c(cccc24)CCC3)[C@H]1c1cccc(Cl)c1 (racemic) [Example 55, (±)-Cis-3-(5,6-dihydro-4H-pyrrolo[3,2,1-ij]quinolin-1yl)-4-(3-chlorophenyl)-pyrrolidine-2,5-dione] | 15.5 µM | > 100 µM | 11.6 µM | > 100 µM | 13.1 µM | 12.9 µM | IC50 (DU-145; [2]): 35.7 µM; IC50 (K562; [3]): 3.47 µM; IC50 (A549; [4]): 13.1 µM; IC50 (HCT-116; [6]): 12.1 µM
6 | CN1C(=O)[C@H](c2cn(C)c3ccccc23)[C@H](c2cn3c4c(cccc24)CCC3)C1=O (racemic) [Example 61, (±)-cis-3-(5,6-dihydro-4H-pyrrolo[3,2,1-ij]quinolin-1-yl)-4(1-methylindol-3-yl)-1-methylpyrrolidine-2,5-dione] | > 100 µM | > 100 µM | 37.6 µM | > 100 µM | > 100 µM | > 100 µM | IC50 (DU-145; [2]): > 100 µM; IC50 (K562; [3]): 18.7 µM; IC50 (A549; [4]): 78.9 µM; IC50 (HCT-116; [6]): 96.2 µM
7 | O=C1NC(=O)C(c2cn3c4c(cccc24)CCC3)=C1c1ccccn1 [Example 9, 3-(5,6-Dihydro-4H-pyrrolo[3,2,1-ij]quinolin-1-yl)-4-pyridin-2-yl-pyrrole-2,5-dione] | > 100 µM | – | – | – | > 100 µM | – | –
8 | COc1ccc(C2=C(c3cn4c5c(cccc35)CCC4)C(=O)NC2=O)cc1 [Example 10, 3-(5,6-Dihydro-4H-pyrrolo[3,2,1-ij]quinolin-1-yl)-4(4-methoxy-phenyl)-pyrrole-2,5-dione] | > 100 µM | – | – | – | > 100 µM | – | –
9 | O=C1NC(=O)C(c2cn3c4c(cccc24)CCC3)=C1c1ccc2c(c1)OCO2 [Example 11, 3-Benzo[1,3]dioxol-5-yl-4-(5,6-dihydro-4H-pyrrolo[3,2,1-ij]quinolin-1-yl)-pyrrole-2,5-dione] | > 100 µM | – | – | – | > 100 µM | – | –
10 | O=C1NC(=O)C(c2cn3c4c(cccc24)CCC3)=C1c1ccccc1 [Example 12, 3-(5,6-Dihydro-4H-pyrrolo[3,2,1-ij]quinolin-1-yl)-4-phenyl-pyrrole-2,5-dione] | 81.6 µM | – | – | – | 66.5 µM | – | –
11 | O=C1NC(=O)C(c2cn3c4c(cccc24)CCC3)=C1c1cc2ccccc2s1 [Example 13, 3-Benzo[b]thiophen-2-yl-4-(5,6-dihydro-4H-pyrrolo[3,2,1-ij]quinolin-1-yl)-pyrrole-2,5-dione] | 78.8 µM | – | – | – | > 100 µM | – | –
12 | O=C1NC(=O)C(c2cn3c4c(cccc24)CCC3)=C1c1cccc(Oc2ccccc2)c1 [Example 14, 3-(5,6-Dihydro-4H-pyrrolo[3,2,1-ij]quinolin-1-yl)-4-(3-phenoxy-phenyl)-pyrrole-2,5-dione] | 98.2 µM | – | – | – | 71.6 µM | – | –
13 | O=C1NC(=O)C(c2cn3c4c(cccc24)CCC3)=C1c1cccc(Cl)c1 [Example 15, 3-(5,6-Dihydro-4H-pyrrolo[3,2,1-ij]quinolin-1-yl)-4-(3-chloro-phenyl)-pyrrole-2,5-dione] | 43.6 µM | – | – | – | 75.8 µM | – | –
14 | O=C1NC(=O)C(c2cn3c4c(cccc24)CCC3)=C1c1ccccc1Cl [Example 16, 3-(5,6-Dihydro-4H-pyrrolo[3,2,1-ij]quinolin-1-yl)-4-(2-chloro-phenyl)-pyrrole-2,5-dione] | 21.5 µM | – | – | – | 40.9 µM | – | –
15 | COc1ccc(OC)c(C2=C(c3cn4c5c(cccc35)CCC4)C(=O)NC2=O)c1 [Example 17, 3-(5,6-Dihydro-4H-pyrrolo[3,2,1-ij]quinolin-1-yl)-4(2,5-dimethoxy-phenyl)-pyrrole-2,5-dione] | > 100 µM | – | – | – | > 100 µM | – | –
16 | O=C1NC(=O)C(c2cn3c4c(cccc24)CCC3)=C1c1ccc(F)cc1Cl [Example 18, 3-(5,6-Dihydro-4H-pyrrolo[3,2,1-ij]quinolin-1-yl)-4-(2-chloro-4-fluoro-phenyl)-pyrrole-2,5-dione] | > 100 µM | – | – | – | > 100 µM | – | –
17 | O=C1NC(=O)C(c2cn3c4c(cccc24)CCC3)=C1c1cccc2ccccc12 [Example 19, 3-(5,6-Dihydro-4H-pyrrolo[3,2,1-ij]quinolin-1-yl)-4-naphthalene-1-yl-pyrrole-2,5-dione] | 70.5 µM | > 100 µM | 36.2 µM | 39.6 µM | 46.8 µM | 96.2 µM | IC50 (DU-145; [2]): > 100 µM; IC50 (K562; [3]): 14 µM; IC50 (A549; [4]): 41 µM; IC50 (HCT-116; [6]): 26.2 µM
18 | O=C1NC(=O)C(c2cn3c4c(cccc24)CCC3)=C1c1c(Cl)cccc1Cl [Example 20, 3-(5,6-Dihydro-4H-pyrrolo[3,2,1-ij]quinolin-1-yl)-4-(2,6-dichloro-phenyl)-pyrrole-2,5-dione] | 50.3 µM | > 100 µM | 23.8 µM | 74 µM | – | 82.7 µM | –
19 | O=C1NC(=O)C(c2cn3c4c(cccc24)CCC3)=C1c1ccccc1Br [Example 21, 3-(5,6-Dihydro-4H-pyrrolo[3,2,1-ij]quinolin-1-yl)-4-(2-bromo-phenyl)-pyrrole-2,5-dione] | 30 µM | > 100 µM | 30.2 µM | > 100 µM | 56.8 µM | 22.2 µM | IC50 (DU-145; [2]): 21.8 µM; IC50 (K562; [3]): 6.42 µM; IC50 (A549; [4]): 28.6 µM; IC50 (HCT-116; [6]): 5.44 µM
20 | O=C1NC(=O)C(n2ccc3ccccc32)=C1c1cn2c3c(cccc13)CCC2 [Example 22, 3-(5,6-Dihydro-4H-pyrrolo[3,2,1-ij]quinolin-1-yl)-4-indol-1-yl-pyrrole-2,5-dione] | 59.4 µM | – | – | – | > 100 µM | – | –
21 | O=C1NC(=O)C(c2cn3c4c(cccc24)CCC3)=C1c1cccnc1 [Example 23, 3-(5,6-Dihydro-4H-pyrrolo[3,2,1-ij]quinolin-1-yl)-4-pyridine-3-yl-pyrrole-2,5-dione] | 28.7 µM | – | – | – | 76.8 µM | – | –
22 | O=C1NC(=O)C(c2cn3c4c(cccc24)CN(C(=O)OCc2ccccc2)CC3)=C1c1c[nH]c2ccccc12 [Example 73, 7-[4-(1H-indol-3-yl)-2,5-dioxo-2,5-dihydro-1H-pyrrol-3-yl]-3,4-dihydro-1H-[1.4]diazepino[6,7,1-hi]indole-2-carboxylic acid benzyl ester] | – | – | – | – | – | – | IC50 (MDA-MB-231; 72 hours with compound): > 100 µM; IC50 (HT29; 72 hours with compound): > 100 µM
23 | (±)-Trans-3-(5,6-dihydro-4H-pyrrolo[3,2,1-ij]quinolin-1yl)-4-(N-methylindol-3-yl)pyrrolidine-2,5-dione [Example 51] | – | – | – | – | – | – | IC50 (NCI-H69): 37.7 µM; IC50 (HT29; 72 hours with compound): 66.8 µM
